Test system: LNCaP prostate cancer cells (AR+ spheroids)
Experiment: Multicellular tumor spheroid growth assay
Assay type: cell-based
Conditions: Homo sapiens, single agent, read-out: SGI % (percent spheroid growth inhibition); for inhibition at 1 µM: 1000 nM; for inhibition at 0.1 µM: 100 nM
Protocol: Example 1—Multicellular Tumor Spheroid Growth Assay in Human AR+ Prostate Cancer Cells (LNCaP) LNCaP prostate cancer cells were obtained from the ATCC and maintained in RPMI 1640 medium supplemented with 10% fetal bovine serum and penicillin-streptomycin as per ATCC guidelines. Cells were maintained in humidified incubator at 37° C. with 5% CO2. Spheroid assays were performed in 96 well ultralow attachment plates (ULA-96U) from Nexcelom & Thermo Fisher Scientific. […] To aid spheroid formation, dispensed cells were centrifuged at 220×g for 6 minutes in the ultralow attachment plates and allowed to form compact spheroids for 4 days prior to the initiation of treatment. After spheroids were formed, 150 μL of medium was aspirated from each well without disturbing the spheroid, and fresh RPMI medium of the same volume was added containing single agent compounds (palbociclib, COMPOUND A, or enzalutamide), or selected combinations thereof. Final concentrations of each compound in the wells were: 30 or 100 nM for palbociclib; 100, 300 or 1000 nM for COMPOUND A; and 1000 nM for enzalutamide. DMSO (0.01%) was used as the vehicle control. DMSO and all compounds were diluted in cell medium. Medium and compounds were replenished twice per week, with 3 and 4-day intervals. Replenishment was executed by aspirating 150 μL of medium per well without disturbing the spheroid and then adding the same volume of premixed medium/compound solution to spheroids. In some cases, an extended phase of treatment was followed by a ‘recovery’ phase where medium was replenished without addition of compounds. Spheroid diameter was quantified immediately following each medium change twice a week (on every 3rd or 4th day) throughout the duration of the assay. Growth of these MCTS was monitored over time to assess: (i) amplitude of response (SGI) and (ii) duration of response to single agents and combination treatments while on treatment. Average diameters of tumor spheroids were plotted in GraphPad Prism 8 and the area-under-curve (AUC) was calculated. AUC baseline was determined by the average tumor spheroid diameter at Day 0 in the vehicle (DMSO) controls. Spheroid growth inhibition, SGI, for all treatment arms was derived at the timepoint when the vehicle (DMSO) treated spheroids reach their maximal diameter (usually close to 1 mm but this can differ among cell lines); this corresponds to the last time point taken for the vehicle (DMSO) treated spheroids. SEM calculated based on n=10 to 12 wells per test group. Percent spheroid growth inhibition, or SGI %, was calculated as follows: SGI %=(1-AUC treatment/AUC DMSO)×100%.

SMILES	inhibition at 1 µM [%]	inhibition at 0.1 µM [%]	inhibition at 0.3 µM (300 nM) [%]	inhibition at 0.03 µM (30 nM) [%]
CNC(=O)c1ccc(N2C(=S)N(c3ccc(C#N)c(C(F)(F)F)c3)C(=O)C2(C)C)cc1F [enzalutamide, 4-[3-[4-cyano-3-(trifluoromethyl)phenyl]-5,5-dimethyl-4-oxo-2-thioxo-1-imidazolidinyl]-2-fluoro-N-methyl-benzamide]	46			
CC(C)n1c(C(C)(C)O)nc2c(F)cc(-c3nc(N[C@@H]4CCOC[C@H]4O)ncc3Cl)cc21 [COMPOUND A, 1,5-anhydro-3-({5-chloro-4-[4-fluoro-2-(2-hydroxypropan-2-yl)-1-(propan-2-yl)-1H-benzimidazol-6-yl]pyrimidin-2-yl}amino)-2,3-dideoxy-D-threo-pentitol]	53	27	38	
CC(=O)c1c(C)c2cnc(Nc3ccc(N4CCNCC4)cn3)nc2n(C2CCCC2)c1=O [palbociclib]		24		5

Reference: patent publication US20240000783A1, “COMBINATION THERAPY” (Pfizer Inc., priority 2020, published 2024)
